This is an account of results in ChEMBL document CHEMBL1201862, “PubChem BioAssay data set” (2004).

The source made the active and inactive calls. Bounds are passed on as bounds.

The nature of assay [1]: Shn3 3'UTR reporter inhibitors, dose response, cell-based, Clone20 osteoblasts, firefly luciferase, cherry-picked (AID 624132).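 Note: firefly luciferase luminescence from reporter carrying the Shn3 3'UTR in osteoblasts.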 It is filed as functional.
Assay [2] can be described thus: inhibitors of PGC1a acetylation in cells, dose response, cell-based, cherry-picked samples (AID 720514).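 Note: potency may reflect raised or lowered acetylation signal.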 It is filed as functional.
The target in assay [3] is Nucleotide-binding oligomerization domain-containing protein 2 (Homo sapiens, UniProt Q9HC29). The assay can be described thus: NOD2 signaling inhibitors, cell-based, luminescence, uHTS, HEK293 (AID 1566). It is filed as functional.
Nucleotide-binding oligomerization domain-containing protein 2, sequence (Q9HC29 whole entry, the tested form may be a part): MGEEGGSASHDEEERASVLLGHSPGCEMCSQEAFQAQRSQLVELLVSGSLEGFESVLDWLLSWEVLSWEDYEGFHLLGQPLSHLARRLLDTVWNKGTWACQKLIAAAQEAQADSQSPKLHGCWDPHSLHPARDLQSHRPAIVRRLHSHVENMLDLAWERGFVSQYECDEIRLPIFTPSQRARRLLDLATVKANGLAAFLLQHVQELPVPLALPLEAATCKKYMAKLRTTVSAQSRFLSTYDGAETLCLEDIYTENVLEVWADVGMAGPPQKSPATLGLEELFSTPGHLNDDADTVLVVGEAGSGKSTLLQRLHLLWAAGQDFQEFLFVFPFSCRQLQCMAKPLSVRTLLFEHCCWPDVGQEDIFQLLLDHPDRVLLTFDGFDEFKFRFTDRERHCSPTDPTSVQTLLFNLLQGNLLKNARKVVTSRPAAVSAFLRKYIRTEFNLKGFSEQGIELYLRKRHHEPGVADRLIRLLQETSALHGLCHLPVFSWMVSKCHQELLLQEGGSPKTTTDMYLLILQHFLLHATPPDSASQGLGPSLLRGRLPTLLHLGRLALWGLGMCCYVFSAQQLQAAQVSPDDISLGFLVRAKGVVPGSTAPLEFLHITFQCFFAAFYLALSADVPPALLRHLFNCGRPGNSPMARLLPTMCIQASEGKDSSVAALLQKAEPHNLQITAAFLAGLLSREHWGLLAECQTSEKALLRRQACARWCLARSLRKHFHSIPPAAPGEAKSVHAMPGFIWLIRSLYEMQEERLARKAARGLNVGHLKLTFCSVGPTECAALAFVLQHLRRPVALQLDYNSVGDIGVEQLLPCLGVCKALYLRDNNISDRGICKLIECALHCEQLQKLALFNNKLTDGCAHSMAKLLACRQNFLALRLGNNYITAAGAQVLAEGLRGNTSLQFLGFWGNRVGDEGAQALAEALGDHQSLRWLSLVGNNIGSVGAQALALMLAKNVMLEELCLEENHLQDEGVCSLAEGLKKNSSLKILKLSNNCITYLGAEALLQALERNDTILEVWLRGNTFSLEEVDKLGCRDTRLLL
Assay [4] in a line: growth suppression of beta-catenin-knockout colon cells, dose response, cell-based, HCT116, human colon tumor (AID 1045).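 Note: HCT116 colon tumor cells with beta catenin knocked out; cells exposed to compound for 60 hours.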 It is filed as functional.
In assay [5] the test system is HEK293. The assay can be described thus: cells. To be noted: Homo sapiens. It is filed as functional, cell-based.
The nature of assay [6]: HepG2 cell cytotoxicity, dose response, cytotoxicity control for Shn3 inhibitor project, CellTiter-Glo, cherry-picked (AID 624134). It is filed as functional, cell-based. For orientation: Cellular ATP, detected with luciferase, serves as a proxy for viable cell number.
The target in assay [7] is Sphingosine 1-phosphate receptor 1 (Homo sapiens, UniProt P21453). It is filed as functional.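 Note: Tango beta-arrestin reporter U2OS cells stimulated with S1P near its EC80; inhibitor potency meaning antagonism of receptor activation by the natural agonist.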
Sphingosine 1-phosphate receptor 1, sequence (P21453 whole entry): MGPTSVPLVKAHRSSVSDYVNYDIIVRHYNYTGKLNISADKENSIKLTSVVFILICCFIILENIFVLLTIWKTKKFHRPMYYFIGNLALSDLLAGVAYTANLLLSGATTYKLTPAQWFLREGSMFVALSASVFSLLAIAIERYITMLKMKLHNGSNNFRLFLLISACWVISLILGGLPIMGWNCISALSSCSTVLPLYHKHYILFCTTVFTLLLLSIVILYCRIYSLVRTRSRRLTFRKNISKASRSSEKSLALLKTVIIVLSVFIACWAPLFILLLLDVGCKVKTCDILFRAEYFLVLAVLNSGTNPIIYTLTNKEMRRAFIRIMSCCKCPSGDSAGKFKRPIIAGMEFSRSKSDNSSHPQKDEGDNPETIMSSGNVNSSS
The subject of assay [8] is HEK293. The assay can be described thus: NOD2 signaling inhibitors in MDP-stimulated cells, cell-based, uHTS, luminescence (AID 2001). To be noted: Homo sapiens. It is filed as functional.
A short description of assay [9]: control 3'UTR Renilla luciferase suppression, dose response, counter-screen for Shn3 inhibitor project, cell-based, Clone20-Shn3RL, cherry-picked (AID 624133). It is filed as functional. (Counterscreens check selectivity or assay interference.)
A further assay concerns INS1. The assay can be described thus: beta cell apoptosis inhibitors, cytokine rescue, dose response, luminescence, retest (AID 449756).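 Note: cell death triggered by IL-1 beta plus TNF-alpha plus IFN-gamma mixture; protective hits raise ATP signal compared with cytokine alone wells.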 It is filed as functional, cell-based. To be noted: Rattus norvegicus.
Assay [10] in a line: inhibitors of SNCA 5'UTR-driven reporter translation, confirmation, H4 neuroglioma cells, luminescence (AID 1988). It is filed as functional, cell-based.
The target of assay [11] is Sphingosine 1-phosphate receptor 4 (Homo sapiens, UniProt O95977). The assay can be described thus: Fluorescence dose response cell-based high throughput screening assay for antagonists of the Sphingosine 1-Phosphate Receptor 4 (S1P4). [Related pubchem assays: 1524 (Confirmation in triplicates.), 1510 (Primary screen.)]. It is filed as functional.
Sphingosine 1-phosphate receptor 4, sequence (O95977 whole entry): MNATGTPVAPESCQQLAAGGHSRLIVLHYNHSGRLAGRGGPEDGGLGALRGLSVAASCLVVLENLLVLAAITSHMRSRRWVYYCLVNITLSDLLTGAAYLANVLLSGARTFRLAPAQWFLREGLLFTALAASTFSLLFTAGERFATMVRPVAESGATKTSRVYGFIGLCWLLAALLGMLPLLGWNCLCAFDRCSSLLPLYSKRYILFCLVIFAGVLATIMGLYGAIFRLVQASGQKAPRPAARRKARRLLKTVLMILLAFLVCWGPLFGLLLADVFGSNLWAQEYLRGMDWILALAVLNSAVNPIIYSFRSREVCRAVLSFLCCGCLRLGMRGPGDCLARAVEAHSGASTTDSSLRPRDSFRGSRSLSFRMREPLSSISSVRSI
The nature of assay [12]: Luminescence Cell-Based Dose Response HTS to Identify Inhibitors of 5'UTR Stem-Loop Driven Prion Protein mRNA Translation in H4 Neuroglioblastoma Cells. [Related pubchem assays: 1827 (Project Summary), 1813 (Primary HTS)]. It is filed as functional.
Assay [13] can be described thus: growth suppression of PTEN-null colon cells, dose response, cell-based, HCT116 PTEN knockout (AID 1047).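 Note: HCT116 colon tumor cells with PTEN knocked out; cells exposed to compound for 60 hours before readout; potency for loss of cell viability measured by luminescence.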 It is filed as functional.
Assay [14] can be described thus: inhibitors of firefly luciferase expression or activity, dose response, H4 neuroglioma cells, luminescence (AID 1990). It is filed as functional, cell-based.
Assay [15] concerns the target Beta-2 adrenergic receptor (Homo sapiens, UniProt P07550). The assay can be described thus: beta2AR agonists driving receptor internalization, dose response, cell-based, FAP fluorogen, flow cytometry, cherry pick 1 (AID 588763). It is filed as functional. (In flow cytometry, cells or beads pass a laser one at a time.)
Assay [16] relates to HEK293. Put plainly: cells. It is filed as functional, cell-based. As to conditions: Homo sapiens. The source holds these as a separate data set.
Assay [17] relates to HEK293. The assay can be described thus: NOD1 signaling inhibitors, primary screen, cell-based, luminescence, uHTS (AID 1578). It is filed as functional. As to conditions: Homo sapiens.
Assay [18] concerns HEK293. The assay can be described thus: cells. It is filed as functional, cell-based. To be noted: Homo sapiens. This is another data set of the same source.
A further assay has as its target Phospholipase A2 (Homo sapiens, UniProt P04054). It is filed as functional.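 Note: confirmatory dose-response counterscreen on phospholipase A2, testing hits that came from an ultra-high-throughput screen for ATG4B inhibitors.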
A further assay addresses Cysteine protease ATG4B (Homo sapiens, UniProt Q9Y4P1). It is filed as functional.
For another assay, the target named is Nonstructural protein 1 (Influenza A virus, UniProt Q194T2). It is filed as functional, Influenza A virus (A/California/07/2009(H1N1)).
Nonstructural protein 1, sequence (Q194T2 whole entry): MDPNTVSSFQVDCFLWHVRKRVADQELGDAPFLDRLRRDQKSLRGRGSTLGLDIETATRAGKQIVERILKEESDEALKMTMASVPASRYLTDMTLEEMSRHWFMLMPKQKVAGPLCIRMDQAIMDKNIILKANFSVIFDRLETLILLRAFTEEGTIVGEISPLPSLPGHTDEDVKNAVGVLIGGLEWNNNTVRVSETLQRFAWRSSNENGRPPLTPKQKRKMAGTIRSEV
Assay [19] relates to HEK293. Put plainly: SAR Analysis of small molecule inhibitors of B-cell specific antigen receptor-induced NF-kB activation in a HEK-293T cell line using a luminescence assay - Set 2. [Related pubchem assays (depositor defined):AID435022, AID435025, AID489021]. It is filed as functional, cell-based. As to conditions: Homo sapiens.
Assay [20] deals with HEK293. The assay can be described thus: cytotoxicity in HEK293T NF-kB-Luc cells, SAR follow-up, cytotoxicity control for NF-kB activator project, cell-based, resazurin fluorescence (AID 493251). It is filed as functional. To be noted: Homo sapiens.
The test system of a further assay is Jurkat. The assay can be described thus: SAR Analysis of small molecule inhibitors of […] specific antigen receptor-induced NF-kB activation in a Jurkat cell line using a luminescence assay - Set 3. [Related pubchem assays (depositor defined):AID435022, AID435025, AID465]. It is filed as functional, cell-based. To be noted: Homo sapiens.
In assay [21] the target is T1, Beta-adrenergic receptor kinase 1 (Homo sapiens, UniProt P25098). Put plainly: GRK2 inhibitors displacing RNA aptamer, dose response, biochemical, flow cytometry beads, FAM-aptamer, powder set 1 (AID 588720).
T1 sequence (P25098 whole entry): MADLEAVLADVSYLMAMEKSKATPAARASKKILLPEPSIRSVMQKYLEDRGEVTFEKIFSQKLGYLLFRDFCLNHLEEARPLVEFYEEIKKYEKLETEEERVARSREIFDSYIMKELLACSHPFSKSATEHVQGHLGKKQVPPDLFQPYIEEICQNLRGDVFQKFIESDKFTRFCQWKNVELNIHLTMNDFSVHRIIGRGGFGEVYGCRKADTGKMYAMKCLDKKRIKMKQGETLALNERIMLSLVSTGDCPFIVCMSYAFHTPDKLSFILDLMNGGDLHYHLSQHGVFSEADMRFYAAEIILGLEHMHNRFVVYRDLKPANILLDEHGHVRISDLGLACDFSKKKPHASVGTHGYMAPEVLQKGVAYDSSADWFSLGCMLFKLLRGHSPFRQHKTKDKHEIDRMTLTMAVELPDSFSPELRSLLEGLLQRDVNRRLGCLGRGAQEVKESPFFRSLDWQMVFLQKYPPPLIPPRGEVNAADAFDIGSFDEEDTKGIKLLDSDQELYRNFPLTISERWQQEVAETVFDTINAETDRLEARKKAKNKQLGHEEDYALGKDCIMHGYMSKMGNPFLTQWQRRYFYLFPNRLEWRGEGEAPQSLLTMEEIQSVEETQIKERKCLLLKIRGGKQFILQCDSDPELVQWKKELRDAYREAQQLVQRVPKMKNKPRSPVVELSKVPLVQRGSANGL
The target in assay [22] is T1, Beta-adrenergic receptor kinase 1. The assay can be described thus: aptamer displacement from bead-bound GRK2 – biochemical, cherry pick 1, bead flow cytometry, dose response (AID 504500).
Another assay deals with T2, Phospholipase D1 (Homo sapiens, UniProt Q13393).
T2 sequence (Q13393 whole entry): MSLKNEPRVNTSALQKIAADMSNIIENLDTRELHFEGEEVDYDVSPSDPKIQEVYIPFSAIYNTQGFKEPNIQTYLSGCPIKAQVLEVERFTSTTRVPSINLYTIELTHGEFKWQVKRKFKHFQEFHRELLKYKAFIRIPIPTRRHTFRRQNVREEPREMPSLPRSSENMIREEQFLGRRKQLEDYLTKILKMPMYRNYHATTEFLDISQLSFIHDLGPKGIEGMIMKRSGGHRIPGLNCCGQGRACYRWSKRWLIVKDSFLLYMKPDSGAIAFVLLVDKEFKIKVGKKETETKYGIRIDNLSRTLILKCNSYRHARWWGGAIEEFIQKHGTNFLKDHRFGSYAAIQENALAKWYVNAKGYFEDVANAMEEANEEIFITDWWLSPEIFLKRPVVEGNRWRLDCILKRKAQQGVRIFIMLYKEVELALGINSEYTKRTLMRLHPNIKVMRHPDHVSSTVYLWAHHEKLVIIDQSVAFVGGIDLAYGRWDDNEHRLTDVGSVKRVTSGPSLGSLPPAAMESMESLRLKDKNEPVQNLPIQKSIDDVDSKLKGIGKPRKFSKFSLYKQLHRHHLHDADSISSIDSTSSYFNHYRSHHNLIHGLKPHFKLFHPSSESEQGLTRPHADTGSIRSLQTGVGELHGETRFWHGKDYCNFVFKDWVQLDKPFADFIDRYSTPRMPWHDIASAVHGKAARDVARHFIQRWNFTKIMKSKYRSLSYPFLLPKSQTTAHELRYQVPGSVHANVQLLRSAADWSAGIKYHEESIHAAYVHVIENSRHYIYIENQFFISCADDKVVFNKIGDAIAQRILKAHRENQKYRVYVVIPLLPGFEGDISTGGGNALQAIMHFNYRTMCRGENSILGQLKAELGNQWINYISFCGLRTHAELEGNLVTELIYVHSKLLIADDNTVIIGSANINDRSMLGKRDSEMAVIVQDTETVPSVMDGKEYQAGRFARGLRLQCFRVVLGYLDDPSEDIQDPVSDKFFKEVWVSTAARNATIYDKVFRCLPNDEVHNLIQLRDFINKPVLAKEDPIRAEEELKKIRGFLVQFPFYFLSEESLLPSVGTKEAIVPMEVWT
Put plainly: PLD1 purified enzyme concentration response. [Related pubchem assays (depositor defined):AID588854]. It is filed as functional.

Another assay has as its target Phospholipase D2 (Homo sapiens, UniProt O14939). The assay can be described thus: PLD2 purified enzyme concentration response. [Related pubchem assays (depositor defined):AID588854]. It is filed as functional.

Beta-2 adrenergic receptor, sequence (P07550 whole entry): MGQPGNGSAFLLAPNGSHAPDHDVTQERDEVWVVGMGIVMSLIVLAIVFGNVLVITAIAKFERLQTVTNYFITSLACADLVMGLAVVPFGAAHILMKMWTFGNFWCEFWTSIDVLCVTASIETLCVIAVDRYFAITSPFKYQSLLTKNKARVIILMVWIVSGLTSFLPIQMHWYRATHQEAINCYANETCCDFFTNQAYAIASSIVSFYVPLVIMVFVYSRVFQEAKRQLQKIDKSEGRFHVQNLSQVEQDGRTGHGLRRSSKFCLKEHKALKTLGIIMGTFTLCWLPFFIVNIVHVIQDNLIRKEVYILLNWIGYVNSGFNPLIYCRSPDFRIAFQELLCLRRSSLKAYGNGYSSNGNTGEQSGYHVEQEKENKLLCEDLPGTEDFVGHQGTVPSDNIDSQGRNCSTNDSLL
Phospholipase A2, sequence (P04054 whole entry): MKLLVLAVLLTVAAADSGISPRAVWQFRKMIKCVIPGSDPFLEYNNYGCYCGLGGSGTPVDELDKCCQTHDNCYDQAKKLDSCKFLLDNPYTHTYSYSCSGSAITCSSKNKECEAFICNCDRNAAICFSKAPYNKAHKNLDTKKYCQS
Phospholipase D2, sequence (O14939 whole entry): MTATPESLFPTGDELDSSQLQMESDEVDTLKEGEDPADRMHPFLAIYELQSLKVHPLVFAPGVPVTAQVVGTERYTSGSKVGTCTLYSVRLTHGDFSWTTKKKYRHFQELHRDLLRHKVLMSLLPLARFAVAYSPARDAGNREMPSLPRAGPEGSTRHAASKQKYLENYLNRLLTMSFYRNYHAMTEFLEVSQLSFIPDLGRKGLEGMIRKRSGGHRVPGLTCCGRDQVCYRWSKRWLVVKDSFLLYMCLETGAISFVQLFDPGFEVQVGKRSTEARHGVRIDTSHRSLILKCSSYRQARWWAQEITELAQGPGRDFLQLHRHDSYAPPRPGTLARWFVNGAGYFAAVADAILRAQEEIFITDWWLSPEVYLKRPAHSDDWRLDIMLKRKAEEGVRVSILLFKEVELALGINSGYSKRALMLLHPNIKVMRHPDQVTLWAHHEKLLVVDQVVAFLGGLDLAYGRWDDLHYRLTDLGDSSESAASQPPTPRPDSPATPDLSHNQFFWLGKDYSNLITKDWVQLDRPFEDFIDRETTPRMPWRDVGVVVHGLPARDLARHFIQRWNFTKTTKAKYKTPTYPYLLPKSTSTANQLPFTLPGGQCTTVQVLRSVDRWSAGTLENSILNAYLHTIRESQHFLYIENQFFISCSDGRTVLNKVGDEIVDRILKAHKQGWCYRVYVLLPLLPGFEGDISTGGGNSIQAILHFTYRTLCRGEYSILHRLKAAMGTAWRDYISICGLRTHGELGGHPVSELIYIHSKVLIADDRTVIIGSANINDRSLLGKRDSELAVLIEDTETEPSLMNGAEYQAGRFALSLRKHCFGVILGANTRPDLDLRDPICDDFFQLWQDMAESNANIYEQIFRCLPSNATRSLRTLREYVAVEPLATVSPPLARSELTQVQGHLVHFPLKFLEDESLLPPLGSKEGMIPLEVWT
Cysteine protease ATG4B, sequence (Q9Y4P1 whole entry): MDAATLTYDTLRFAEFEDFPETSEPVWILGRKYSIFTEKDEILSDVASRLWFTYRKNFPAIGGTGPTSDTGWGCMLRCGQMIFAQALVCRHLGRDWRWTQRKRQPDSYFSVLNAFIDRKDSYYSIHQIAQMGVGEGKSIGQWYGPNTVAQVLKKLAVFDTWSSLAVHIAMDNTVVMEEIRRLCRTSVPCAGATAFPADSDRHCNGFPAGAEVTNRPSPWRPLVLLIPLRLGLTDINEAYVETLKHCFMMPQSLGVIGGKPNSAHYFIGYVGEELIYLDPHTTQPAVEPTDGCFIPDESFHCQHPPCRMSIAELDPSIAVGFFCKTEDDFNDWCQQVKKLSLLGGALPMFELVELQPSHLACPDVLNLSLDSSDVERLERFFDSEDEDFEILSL

Broadly, the AC50 is the midpoint of the concentration-response curve, whichever way the signal moves. One may read the EC50 as the concentration that produces a half-maximal response. The IC50 is the concentration that gives 50% inhibition. Take `Cc1ccc(-c2nc(NC(=O)c3nn(C)cc3[N+](=O)[O-])sc2C)cc1`: the AC50 in assay [1] was 1.3 µM (active); in assay [2], 3.81 µM (active); in assay [6], 26.8 µM (active); in assay [9], 6.15 µM (active); in the assay with INS1, 5.22 µM (active). Also, the EC50 in [3] was 3 µM (active); in [4] it was 0.321 µM (active); in [10], 1.84 µM (active); in [12], 5.05 µM (active); in assay [13] it was 0.4 µM (active); in assay [14], 5.46 µM (active). The values for the EC50 (in assay [15]; in the assay on HEK293 [17]) were 8.09 µM (active) and 5.58 µM (active), respectively. Also, the IC50 in the assay with HEK293 [5] is 14.7 µM (active); in assay [7], 21 µM (not active); with HEK293 [8], 2.14 µM (active); in assay [11], 1.07 µM (active); in the assay on HEK293 [16], > 20 µM (inactive); with HEK293 [18], 2.48 µM (active).
For the compound `COCCNC(=O)/C(C#N)=C/c1c(N2CCN(c3ccccc3)CC2)nc2c(C)cccn2c1=O`, the figures for the IC50 on Phospholipase A2, on Cysteine protease ATG4B and on Nonstructural protein 1 were 9.79 µM (active), 14.7 µM (active) and > 100 µM (active), respectively.
Take `CCOc1ccc(-c2nc(CSCC(=O)NCCC3=CCCCC3)c(C)o2)cc1`: the IC50 with HEK293 [19] was 17.6 µM (active); in the assay with HEK293 [20], 42.4 µM (inactive); with Jurkat it was 9.13 µM (active).
Turning to `COc1ccc(CNC(=O)CCS(=O)(=O)c2ccc(Br)cc2)cc1`, the EC50 in assay [21] is 3 µM (active); in assay [22], 0.7 µM (active).
For `COc1cc(C(=O)NCCN2CCC3(CC2)C(=O)NCN3c2ccccc2)ccc1N`, the IC50 at Phospholipase D1 was 1.08 µM (active); on Phospholipase D2, 0.17 µM (active).
